What was measured:
delta opioid receptor [1] = target: T1, delta opioid receptor (Homo sapiens, UniProt P41143); assay: Stimulation of [35S]GTPγS binding (coupling to G proteins); assay type: biochemical; design: expressed in transfected cells; host or cells: transfected cells; details: Table 8
kappa opioid receptor [2] = target: T2, kappa opioid receptor (Homo sapiens, UniProt P41145); assay: biochemical; assay type: biochemical; design: expressed in transfected cells; host or cells: transfected cells; details: Table 8
delta opioid receptor [3] = target: T1, delta opioid receptor; assay: biochemical; assay type: binding; design: expressed in transfected cells; host or cells: transfected cells; details: Table 7, CHO membranes
kappa opioid receptor [4] = target: T2, kappa opioid receptor; assay: biochemical; assay type: binding; design: expressed in transfected cells; host or cells: transfected cells; details: Table 7, CHO membranes
delta opioid receptor [5] = target: T1, delta opioid receptor; assay: Ke at delta, CHO membranes; assay type: biochemical; design: expressed in transfected cells; host or cells: CHO; details: Table 7, CHO membranes

T1 sequence (P41143 whole entry): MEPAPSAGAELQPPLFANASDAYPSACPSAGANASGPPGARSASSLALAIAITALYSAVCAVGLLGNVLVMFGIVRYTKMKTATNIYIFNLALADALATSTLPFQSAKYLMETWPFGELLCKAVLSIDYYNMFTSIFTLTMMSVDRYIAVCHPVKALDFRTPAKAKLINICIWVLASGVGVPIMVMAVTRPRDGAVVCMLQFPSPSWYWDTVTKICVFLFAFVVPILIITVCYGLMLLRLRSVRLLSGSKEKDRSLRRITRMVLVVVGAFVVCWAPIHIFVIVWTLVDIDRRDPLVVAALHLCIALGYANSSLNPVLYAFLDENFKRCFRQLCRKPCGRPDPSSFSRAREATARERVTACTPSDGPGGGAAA
T2 sequence (P41145 whole entry): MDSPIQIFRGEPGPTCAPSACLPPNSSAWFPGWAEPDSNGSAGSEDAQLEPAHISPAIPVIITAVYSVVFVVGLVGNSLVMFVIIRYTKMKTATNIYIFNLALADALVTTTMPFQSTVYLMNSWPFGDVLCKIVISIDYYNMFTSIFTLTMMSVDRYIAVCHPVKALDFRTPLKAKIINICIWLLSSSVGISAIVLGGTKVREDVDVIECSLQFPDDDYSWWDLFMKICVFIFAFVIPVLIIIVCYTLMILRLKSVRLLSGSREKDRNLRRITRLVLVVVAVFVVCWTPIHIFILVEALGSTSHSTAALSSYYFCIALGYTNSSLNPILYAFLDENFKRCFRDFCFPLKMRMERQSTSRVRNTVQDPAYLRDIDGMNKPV

`O=C(C[C@@H]1O[C@H](COCc2ccccc2)[C@@H](OCc2ccccc2)[C@H](OCc2ccccc2)[C@H]1OCc1ccccc1)NC1CC[C@@]2(O)[C@H]3Cc4ccc(O)c5c4[C@@]2(CCN3CC2CC2)[C@H]1O5` (stereo partly drawn) [compound 5, 6-acetamido-2,3,4,6-tetra-O-benzyl-D-glucopyranosyl-14-Hydroxy-17-(cyclopropylmethyl)nordesmorphine] was tested, and the Emax (delta opioid receptor [1]) was 20.5%, the EC50 (delta opioid receptor [1]; read-out: delta EC50) was 0.107 µM and the Emax (kappa opioid receptor [2]; read-out: kappa % stimulation) was 45.5%. For the same compound, the EC50 (kappa opioid receptor [2]; read-out: kappa EC50) was 0.0108 µM, the Ki delta (delta opioid receptor [3]) was “low affinity” and the Ki (delta opioid receptor [3]; read-out: Ki delta) was 0.14 ± 0.0139 µM. The Ki kappa (kappa opioid receptor [4]) was “moderate affinity”, the Ki (kappa opioid receptor [4]; read-out: Ki kappa) was 0.039 ± 0.0063 µM and the “Ke(other) (delta)” value (delta opioid receptor [5]) was 10.35 ± 2.01.

Source: US8481501B2 (priority 2004, dated 2013)
